In general, logP refers to the decadic logarithm of the partition coefficient of the neutral form, usually between octanol and water.

In turn, `O=C(O)CCCCOc1cccc2ccccc12` displayed a logP of 4.

`Cc1nn(-c2ccccc2)c(Nc2ccccc2)c1[N+](=O)[O-]` displayed a logP of 2.98.

Consider `CCNc1nc(C)c(C(=O)CCN(C)C)s1`, for which the logP amounted to 2.21.

Take `COC1N(C2CC(F)C(CO)O2)C(=O)NC(=O)C1(C)Cl` (stereo not drawn): the logP worked out at 0.18.

For `NS(=O)(=O)c1ccc2c(c1)S(=O)(=O)NC(C(Cl)Cl)N2` (stereo not drawn), the log partition coefficient (logP) turned out to be 0.51.

With `CC(C)(C)NCC(O)COc1cccc2c1C[C@H](O)[C@H](O)C2` (stereo partly drawn), the logP came out at 0.81.

`NS(=O)(=O)c1cc2c(cc1Br)NC=NS2(=O)=O`: the logP came to 0.

Compound `CN1CC(C)(C)C(=O)c2ccccc21` yielded a logP of 2.72.

`O=C(c1c(F)c(F)c(F)c(F)c1F)c1ccc2n1CCC2C(=O)O` (stereo not drawn): the log partition coefficient (logP) was determined as 3.24.

Consider `CC(n1ccnc1)C(O)(c1ccc(F)cc1)c1ccc(F)cc1` (stereo not drawn), for which the logP is 3.13.

`O=C1c2ccccc2C(=O)C1c1ccc(C(F)(F)F)cc1` gave a lipophilicity (logP) of 3.78.

`OC(CN1C2CCCCCC21)Cn1ccnc1` (stereo not drawn) gave a lipophilicity (logP) of 1.44.

The compound `CNc1cnn(-c2ccccc2)c(=O)c1Cl` had a log partition coefficient (logP) of 1.19.

Compound `CCOC(=O)C1(c2ccccc2)CCN(C)CC1` returned a log partition coefficient (logP) of 2.72.

`CC1NC(=O)NC1=O` (stereo not drawn) registered a lipophilicity (logP) of -0.91.

`Cc1cc(OCC(=O)O)ccc1S(C)(=O)=O` registered a logP of 0.54.

Turning to `Cc1ccc(CC#N)cc1`, the logP was determined as 1.67.

`CSc1ccc(OCc2ncc([N+](=O)[O-])n2C)cc1` came in with a log partition coefficient (logP) of 2.5.

In the case of `Oc1ccc(C(O)(Cn2ccnc2)c2ccc(-c3ccncc3)cc2)cc1` (stereo not drawn), the logP came to 2.49.

Compound `O=C1COC(=O)N1c1ccccc1` showed a lipophilicity (logP) of 0.93.

`O=[N+]([O-])c1ccc(Oc2ccc(Cl)cc2Cl)cc1` registered a lipophilicity (logP) of 4.64.

On to `Cn1c(S)nnc(-c2ccc(OC(F)(F)F)c(Cl)c2)c1=O`, for which the log partition coefficient (logP) was determined as 3.61.

`CN1C(=O)NC(c2ccccc2)(c2ccccc2)C1=O`: the log partition coefficient (logP) is 2.28.

Consider `Cc1ccn2c(=O)ccnc2c1`, for which the logP was 0.56.

In turn, `CC(=O)N(C)C1=NC(=O)C(=Cc2ccc([N+](=O)[O-])o2)S1` gave a lipophilicity (logP) of 1.05.

With `CN1CC(O)CN(C)C1=Nc1ncc([N+](=O)[O-])s1` (stereo not drawn), the lipophilicity (logP) was determined as 0.16.

The compound `CNC12CCCCC1CSc1ccccc12` (stereo not drawn) had a logP of 3.88.

Turning to `CCCCC1C(=O)NC(=O)N(C)C1=O` (stereo not drawn), the lipophilicity (logP) came out at 1.1.

Take `CCn1cc(C(=O)OCOC(C)=O)c(=O)c2ccc(C)nc21`: the logP stood at 1.21.

On to `C=C1C(=O)OC2C1C(O)CC(C)C1CCC(=O)C12C` (stereo not drawn), for which the logP came out at 0.23.

Regarding `CCCCCCCC(=O)N[C@@H]1C(=O)N2[C@@H]1SC(C)(C)[C@@H]2C(=O)O`, the log partition coefficient (logP) was found to be 3.32.

`O=C1c2ccccc2C(=O)C1c1cccc(Cl)c1`: the lipophilicity (logP) was 3.61.

`O=C1CN=C(c2ccccn2)c2cc(Br)ccc2N1` came in with a logP of 2.05.

The compound `CCCCCn1ccc(=O)c(O)c1C` displayed a logP of 1.24.

Regarding `O=C(O)Cc1ccc(C(=O)O)cc1`, the logP came out at 1.24.

On to `CCCCC(=O)CC(=O)CCCC`, for which the log partition coefficient (logP) came to 3.56.

Consider `CC(C)c1ccc(C2C(=O)c3ccccc3C2=O)cc1`, for which the logP was 4.43.

The compound `COCC(=O)Cn1ccnc1[N+](=O)[O-]` gave a logP of -0.26.

In turn, `COc1cccc(C2(O)CCCCC2CN(C)C)c1` (stereo not drawn) yielded a logP of 2.51.

For the compound `CCCC(=NOCC)C1C(=O)CC2(CCSCC2)OC1=O` (stereo not drawn), the log partition coefficient (logP) was determined as 2.9.

In turn, `CCOCCCn1ccc(=O)c(O)c1CC` yielded a lipophilicity (logP) of 0.72.

As to `O=c1c2ccccc2nc2n1CCCC2`, the lipophilicity (logP) turned out to be 1.52.

`Nc1c(Cl)c(Cl)c(Cl)c(Cl)c1Cl` returned a logP of 4.82.

With `CCCC(CC)C(=O)O` (stereo not drawn), the logP worked out at 2.23.

`CC(C)C1NC(=O)NC1=O` (stereo not drawn): the logP was -0.36.

`CCOP(=S)(OCC)Oc1nc(Cl)c(Cl)cc1Cl`: the logP was found to be 4.96.

`CCCCCCCC(=O)n1cc(CC(NC(=O)CC2NC(=O)C3C4CCC(CC4)N3C2=O)C(=O)NC(Cc2ccccc2)C(=O)N(C)Cc2ccccc2)c2ccccc21` (stereo not drawn): the logP is 7.29.

On to `Cc1ccccc1C=O`, for which the logP stood at 2.26.

Compound `CC(=O)NC(CC(N)=O)C(N)=O` (stereo not drawn) showed a logP of -2.41.

Turning to `CCc1[nH]ccc(=O)c1O`, the lipophilicity (logP) worked out at 0.05.

`CNC(=O)c1cccc(Oc2cc(C)ccc2C)c1` came in with a logP of 3.76.

`COC1CC(OC2CCC3(C)C2CCC2C3CCC3(C)C(C4=CC(=O)OC4)CCC23O)OC(C)C1O` (stereo not drawn) gave a log partition coefficient (logP) of 2.37.

For `C[C@@H]1O[C@@H](O[C@H]2C[C@@H](O)[C@]3(CO)[C@H]4[C@H](O)C[C@]5(C)[C@@H](C6=CC(=O)OC6)CC[C@]5(O)[C@@H]4CC[C@]3(O)C2)[C@H](O)[C@H](O)[C@H]1O`, the lipophilicity (logP) was -2.

`Cc1ccc(C(N)=S)cc1` gave a logP of 2.01.

`CN1C(=O)C(C)(C2=CCCCC2)C(=O)N=C1O` (stereo not drawn): the logP was 1.98.

For the compound `COc1ccccc1/C=C/C(=O)O`, the logP worked out at 2.54.

Consider `CCOP(=O)(O)Cc1ccc(S(C)(=O)=O)cc1`, for which the logP was -0.4.

`CCOC(=O)c1cc(=O)[nH]c(=O)[nH]1` showed a log partition coefficient (logP) of 0.68.

Take `COC(=O)NC1=NCC(c2ccccc2Br)N1` (stereo not drawn): the logP is 1.85.

Consider `CC(=O)OC(CNC(C)C)COc1cccc2ccccc12` (stereo not drawn), for which the logP was 4.34.

Consider `Cc1c(F)c(F)c(C(=O)O)c(F)c1F`, for which the logP was 3.15.

`COC(=O)NC1=NCC(c2ccc(C(C)C)cc2)N1` (stereo not drawn) showed a logP of 2.6.

`CN(C)C(=O)NCCCn1nc(-c2ccccc2)ccc1=O` came in with a logP of 1.61.

In the case of `NC(=O)NCCCCCCn1nc(-c2ccccc2)ccc1=O`, the log partition coefficient (logP) stood at 1.82.

On to `CCCCC(CC)C(=O)N1c2ccc(C)cc2C2CN(C)CCC21` (stereo not drawn), for which the logP came out at 4.14.

As to `CCCC1=Nc2cc(Cl)c(S(N)(=O)=O)cc2S(=O)(=O)N1`, the logP turned out to be 1.21.

Compound `N=C(N)NN=Cc1ccc(Cl)c([N+](=O)[O-])c1` came in with a logP of 0.53.

As to `NS(=O)(=O)c1ccc(Cl)c([N+](=O)[O-])c1`, the log partition coefficient (logP) was 0.66.

Consider `O=c1c2c(nc3n1CCC3)CCCC2`, for which the logP is 0.83.

For `OC[C@H]1NC[C@H](O)[C@@H](O)[C@@H]1O`, the logP was -1.8.

In turn, `COC(=O)C1CC2C3CCC4=CC(=O)C=CC4(C)C3C(O)CC2(C)C1C(=O)CO` (stereo not drawn) displayed a log partition coefficient (logP) of 1.7.

In turn, `CCCCC(=O)OCC1OC(n2cc(F)c(=O)[nH]c2=O)CC1OC(=O)CCCC` (stereo not drawn) came in with a lipophilicity (logP) of 2.72.

`Cc1c(O)c(=O)ccn1C` yielded a log partition coefficient (logP) of -0.77.

In the case of `CCCCC(=O)OC[C@H]1O[C@@H](n2cc(I)c(=O)[nH]c2=O)C[C@@H]1O`, the logP was 1.44.

The compound `CCOC(=O)c1cnc2n(c1=O)CCC(C)C2` (stereo not drawn) showed a lipophilicity (logP) of 0.66.

The compound `O=C(O)c1cc([N+](=O)[O-])cc([N+](=O)[O-])c1O` yielded a logP of 1.71.

The compound `O=C1CC2(CCCC2)C(=O)N1Oc1ccccc1` yielded a logP of 1.77. This logP and that of the compound before are within 0.2 log units of each other.

For `O=C(O)c1cc(O)nc(O)n1`, the logP was -0.83.

Turning to `COc1cccc(C(=O)NC2CCN(Cc3ccc(F)cc3)CC2)c1OC`, the log partition coefficient (logP) stood at 2.87.

On to `CCN(CC)C(=O)CCn1ccc(=O)c(O)c1C`, for which the logP was -0.36.

`O=[N+]([O-])c1cnc(-c2ccc(F)cc2)n1CCO` registered a logP of 1.33.

`COC(=O)NC1=NCC(c2ccccc2Cl)N1C` (stereo not drawn) had a logP of 2.08.

In the case of `Nc1cc([N+](=O)[O-])ccc1O`, the logP is 1.26.

In the case of `O=C(O)Cc1ccc(O)c(O)c1`, the logP was found to be 0.98.

As to `CCCCCCCC=CCCCCCCC(=O)O`, the log partition coefficient (logP) is 6.58.

The compound `CN1CC(=O)N(c2ccccc2)C1=O` registered a logP of 0.14.

The compound `COc1c(Cl)cc(Cl)c(O)c1C(=O)NCC1CCCN1CCF` (stereo not drawn) had a logP of 3.66.

The compound `COc1ccc(C(=O)CCCC(=O)O)cc1` returned a log partition coefficient (logP) of 1.63.

In turn, `CCOP(=O)(OCC)OC(=CCl)c1ccc(Cl)cc1Cl` came in with a logP of 3.81.

Compound `COC(=O)C(C#N)=Cc1ccc(SC)o1` registered a logP of 2.61.

Compound `CC(C)Cc1ccc(CC(=O)O)cc1` yielded a logP of 3.35.

`CC(C(=O)O)N(C(=O)c1ccccc1)c1ccc(F)c(Cl)c1` (stereo not drawn) gave a lipophilicity (logP) of 2.9.

As to `Cc1cccc(C)c1C(=O)CCN1CCCCC1`, the logP is 3.53.

In turn, `CNC(=O)N1C(=O)CN=C(c2ccccc2)c2cc([N+](=O)[O-])ccc21` gave a log partition coefficient (logP) of 1.76.

In turn, `O=C(O)c1cc(I)ccc1O` came in with a logP of 3.34.

In the case of `Cc1ccc(C)c(Oc2cccc(C(=O)NC(C)C)c2)c1`, the lipophilicity (logP) is 4.35.

Turning to `CCOC(=O)OCn1c(=O)[nH]cc(F)c1=O`, the log partition coefficient (logP) came to 0.15.

`Cc1ccccc1C(=O)C(C)CN1CCCCC1` (stereo not drawn) showed a logP of 3.69.

In the case of `COC(=O)NC1=NCC(c2cc(Br)ccc2Br)N1C` (stereo not drawn), the logP came to 2.77.

For `NC(=S)NNC(=O)c1ccc2c(c1)OCO2`, the logP is 0.21.

Regarding `NC(=S)c1ccc([N+](=O)[O-])cc1`, the logP came to 1.75.

`Cc1ncc([N+](=O)[O-])n1CCOC(N)=O`: the logP was -0.29.

For `CCc1ccc(OCC(OC(=O)n2ccnc2)C(C)(C)C)cc1` (stereo not drawn), the logP was found to be 4.1.

Turning to `O=C1NC(Cc2ccccc2)C(=O)N1Cc1ccccc1` (stereo not drawn), the log partition coefficient (logP) worked out at 2.84.

Turning to `CCCNC(=O)CCn1ccc(=O)c(O)c1C`, the logP was -0.4.

Take `COC(=O)NC1=NCC(c2cccc(F)c2)N1` (stereo not drawn): the logP amounted to 1.41.

Take `CC(C)COC(=O)N(C)C`: the lipophilicity (logP) was 2.

`CC(C)(C)c1ccc(C2CCCC(O)C2)c(O)c1` (stereo not drawn) displayed a lipophilicity (logP) of 4.05.

As for `Cc1cc2n(c1C(=O)c1ccc(Cl)cc1)CCC2C(=O)O` (stereo not drawn), the logP was 3.6.

`CN(C)C(=O)Nc1ccc(Oc2nnnn2C2CCCCC2)cc1` returned a logP of 2.18.

`CNC(=O)NCCCCn1nc(-c2ccccc2)ccc1=O`: the lipophilicity (logP) came to 1.23.

`CCNC1C2CCC(C2)C1c1ccccc1` (stereo not drawn) had a logP of 3.2.

For `CCOc1ccc(OCC(OC(=O)n2ccnc2)C(C)(C)C)cc1` (stereo not drawn), the lipophilicity (logP) was 3.86.

The compound `FC(F)(F)c1nc2c(Cl)c(Cl)c(Cl)cc2[nH]1` displayed a logP of 3.87.

Consider `CCOc1ccc(C=NNC(=N)N)cc1`, for which the logP is 0.24.

Take `CCN(CC)CCC(=O)c1sc(N)nc1C`: the logP was 1.76.

`CCCN1CCOC2c3cccc(O)c3OCC21` (stereo not drawn): the logP came out at 1.93.

Compound `NNC(=O)c1ccc2c(c1)OCO2` displayed a logP of 1.16.

For the origin of these results see the OPERA property sets (Mansouri et al. 2018).
